What was measured:
[1] = test system: GM3 expression in B16 mouse melanoma cells; assay: GM3 fluorescent-linked immunosorbent assay (FLISA), B16 cells; format: cell-based; conditions: 48 hours
Text: Inhibition of glucosylceramide synthase activity can be measured with one or more assays. A first assay is a microsomal assay that directly measures the conversion of ceramide to glucosylceramide by HPLC. Microsomes are a source of glucosylceramide synthase activity in the microsomal assay. A second assay is a cell based, phenotypic assay that monitors cell surface expression of the downstream lipid GM3 by antibody mediated immunofluorescence. Specific protocols are provided below.
This is a phenotypic assay that measures GM3 expression in B16 mouse melanoma or C32 human melanoma cells following treatment with test compounds. Cell surface GM3 expression is determined by antibody mediated fluorescence.
Compounds are diluted in media and plated in 384 well plates in DMSO. B16 and C32 cells are assayed at densities of 20,000 cells/ml and 62,500 cells/ml, respectively, per well. Each titration curve contains 10 points that are assayed in duplicate on each test run. The plates are incubated for 48 hours at 37° C., 5% CO2, and are then washed once with TBS. Anti-GM3 antibody is added to each well and the plates are then incubated for an additional one hour at room temperature. Plates are subsequently washed twice and incubated for an additional hour with the labeled secondary antibody. Following the final incubation, the plates are washed twice and the fluorescence at λex=D640/20 nm and λem=657 nm is detected on a fluorescent reader.
The results of the microsomal assays are expressed as “GCS IC50”, which represents the concentration of the compound causing 50% inhibition of glucosylceramide synthase activity. The results of the cell-based assays are expressed as “GM3 B16 IC50” or “GM3 C32 IC50” for the B16 assay and the C32 assay, respectively. These values represent the concentration of the compound causing 50% inhibition of GM3 expression on the cell surface.

[2] = test system: adult patients with Gaucher disease Type 3; assay: Clinical study in GD-3 patients: trail making test (TMT); format: in vivo, human; conditions: 15 mg/day + imiglucerase
Text: The trail making test (TMT) was used to evaluate cognitive function in the patients. The TMT is one of the most widely used neuropsychological tests and is included in most test batteries. The TMT is a diagnostic tool to assess general intelligence and cognitive dysfunctions (Tombaugh et al. [2004]; Cavaco et al. [2013]). In part A of the TMT, subjects are asked to connect a cluster of numbers in ascending order. This task is a combination of visual search and general visual and motor processing speed. Part B presents a sequence which alternates between numbers and letters. Subjects must actively switch between both categories when connecting them in ascending, but alternating order.
TMT-A evaluates mainly perceptual and psychomotor speed. TMT-B assesses more specifically mental flexibility and shifting abilities. TMT B minus TMT A score is used to remove the variance attributable to the graphomotor and visual scanning components of TMT A. This derived score reflects the unique task requirements of TMT B.

[3] = test system: GL-3 inclusions in skin cells; assay: Clinical study in Fabry disease patients: skin GL-3 inclusion score by light microscopy; format: in vivo, human
Experimental: A three-year open-label investigation of Compound 2 in young classic Fabry disease patients was conducted in order to evaluate the long-term safety, pharmacodynamics and exploratory efficacy of Compound 2 in adult male Fabry patients. Eleven subjects enrolled in the study, and seven subjects completed all aspects of the study. All subjects were males diagnosed with classic Fabry disease confirmed by genotype and residual alpha-galactosidase activity below detection levels (9 of the 11 had nonsense mutation in the GLA gene). All subjects had lyso-GL3 levels in plasma of at least 65 ng/mL and had no prior Fabry disease-specific treatment. The median age of subject was 24 years (range 19-37).
Each sample was scored independently by 3 pathologists for the presence of GL-3 inclusions on a four-point scale, and rated as 0 (no/trace), 1 (mild), 2 (moderate), or 3 (severe) according to Eng et al., N. Engl. J. Med. 345:9-16 (2001). A single score per patient per time point was derived by taking the score rated by the majority of the three pathologists. If a majority score could not be derived, then the median score was used (resulting in some fractional scores). Plasma samples were also analyzed for GL-3, lyso-GL-3, GL-1 and GM3 at baseline and weeks 12, 26, 52 and 156. Pain scores and abdominal symptoms were analyzed at baseline and weeks 12, 26, 52, 104 and 156 using the SF-36 scoring protocol.

[4] = Fabry patients, 15 mg/day oral, by week 156
[5] = Fabry, 15 mg/day, Endothelial Cells, Deep Vessels, 12 weeks
[6] = Fabry, 15 mg/day, Endothelial Cells, Deep Vessels, 26 weeks
[7] = Fabry, 15 mg/day, Endothelial Cells, Deep Vessels, 52 weeks
[8] = Fabry, 15 mg/day, Endothelial Cells, Deep Vessels, 156 weeks
[9] = Fabry, 15 mg/day, Endothelial Cells, Superficial Vessels, 12 weeks
[10] = Fabry, 15 mg/day, Endothelial Cells, Superficial Vessels, 26 weeks
[11] = Fabry, 15 mg/day, Endothelial Cells, Superficial Vessels, 52 weeks
[12] = Fabry, 15 mg/day, Endothelial Cells, Superficial Vessels, 156 weeks
[13] = Fabry, 15 mg/day, Perineurium Cells, 12 weeks
[14] = Fabry, 15 mg/day, Perineurium Cells, 26 weeks
[15] = Fabry, 15 mg/day, Perineurium Cells, 52 weeks
[16] = Fabry, 15 mg/day, Perineurium Cells, 156 weeks
[17] = Fabry, 15 mg/day, Smooth Muscle Cells, Deep Vessels, 12 weeks
[18] = Fabry, 15 mg/day, Smooth Muscle Cells, Deep Vessels, 26 weeks
[19] = Fabry, 15 mg/day, Smooth Muscle Cells, Deep Vessels, 52 weeks
[20] = Fabry, 15 mg/day, Smooth Muscle Cells, Deep Vessels, 156 weeks

## CC(C)(NC(=O)O[C@@H]1CN2CCC1CC2)c1csc(-c2ccc(F)cc2)n1 [Compound 2, (S)-quinuclidin-3-yl 2-(2-(4-fluorophenyl)thiazol-4-yl)propan-2-ylcarbamate]
[1]
  IC50: 107 nM
[2]; 52 weeks, SD=54.3
  Mean difference in time taken to complete Trail B minus Trail A: 66.2 s
[2]; Week 52
  Patients with a TMT-A reduction, excluding Patient 5: four of five
  Patients with a TMT-B reduction, excluding Patient 5: five of five
  Patients with a reduction in the (TMT B−TMT A) time: 5 of 6
  Patients with an improvement in Trail B minus Trial A, excluding Patient 5: four of five
  Patients with reduction in time taken to complete Trail A: Four of six
  Patients with reduction in time taken to complete Trail B: six of six
[3]; [4]
  Patients with a 1-point reduction in skin GL-3 score: five
  Patients with complete clearance of GL-3 inclusions: two
  Patients with no change in skin GL-3 score: one
[3]; [5]
  Number of patients: skin GL-3 Score 1 unchanged: 1/9 (11%)
  Number of patients: skin GL-3 Score 2 dropped to 1: 2/9 (22%)
  Number of patients: skin GL-3 Score 2 unchanged: 6/9 (67%)
[3]; [6]
  Number of patients: skin GL-3 Score 1 unchanged: 1/9 (11%)
  Number of patients: skin GL-3 Score 2 dropped to 1: 2/9 (22%)
  Number of patients: skin GL-3 Score 2 unchanged: 6/9 (67%)
[3]; [7]
  Number of patients: skin GL-3 Score 2 dropped to 1: 3/6 (50%)
  Number of patients: skin GL-3 Score 2 dropped to 1.5: 1/6 (17%)
  Number of patients: skin GL-3 Score 2 unchanged: 2/6 (33%)
[3]; [8]
  Number of patients: skin GL-3 Score 1 unchanged: 1/6 (17%)
  Number of patients: skin GL-3 Score 2 dropped to 0.5: 1/6 (17%)
  Number of patients: skin GL-3 Score 2 dropped to 1: 3/6 (50%)
  Number of patients: skin GL-3 Score 2 unchanged: 1/6 (17%)
[3]; [9]
  Number of patients: skin GL-3 Score 1 raised to 2: 1/9 (11%)
  Number of patients: skin GL-3 Score 1 unchanged: 4/9 (44%)
  Number of patients: skin GL-3 Score 2 dropped to 1: 3/9 (33%)
  Number of patients: skin GL-3 Score 2 unchanged: 1/9 (11%)
[3]; [10]
  Number of patients: skin GL-3 Score 1 raised to 2: 1/9 (11%)
  Number of patients: skin GL-3 Score 1 unchanged: 4/9 (44%)
  Number of patients: skin GL-3 Score 2 dropped to 1: 3/9 (33%)
  Number of patients: skin GL-3 Score 2 unchanged: 1/9 (11%)
[3]; [11]
  Number of patients: skin GL-3 Score 1 unchanged: 3/6 (50%)
  Number of patients: skin GL-3 Score 2 dropped to 1: 2/6 (33%)
  Number of patients: skin GL-3 Score 2 unchanged: 1/6 (17%)
[3]; [12]
  Number of patients: skin GL-3 Score 1 dropped to 0: 2/6 (33%)
  Number of patients: skin GL-3 Score 1 unchanged: 1/6 (17%)
  Number of patients: skin GL-3 Score 2 dropped to 1: 3/6 (50%)
[3]; [13]
  Number of patients: skin GL-3 Score 1 raised to 2: 1/9 (11%)
  Number of patients: skin GL-3 Score 2 unchanged: 8/9 (89%)
[3]; [14]
  Number of patients: skin GL-3 Score 1 raised to 2: 1/9 (11%)
  Number of patients: skin GL-3 Score 2 unchanged: 8/9 (89%)
[3]; [15]
  Number of patients: skin GL-3 Score 1 raised to 2: 1/6 (17%)
  Number of patients: skin GL-3 Score 2 dropped to 1: 1/6 (17%)
  Number of patients: skin GL-3 Score 2 dropped to 1.5: 1/6 (17%)
  Number of patients: skin GL-3 Score 2 unchanged: 3/6 (50%)
[3]; [16]
  Number of patients: skin GL-3 Score 1 unchanged: 1/6 (17%)
  Number of patients: skin GL-3 Score 2 dropped to 1.5: 1/6 (17%)
  Number of patients: skin GL-3 Score 2 unchanged: 4/6 (67%)
[3]; [17]
  Number of patients: skin GL-3 Score 1.5 raised to 2: 2/9 (22%)
  Number of patients: skin GL-3 Score 2 unchanged: 7/9 (78%)
[3]; [18]
  Number of patients: skin GL-3 Score 1.5 unchanged: 2/9 (22%)
  Number of patients: skin GL-3 Score 2 unchanged: 7/9 (78%)
[3]; [19]
  Number of patients: skin GL-3 Score 1.5 raised to 2: 1/5 (20%)
  Number of patients: skin GL-3 Score 2 unchanged: 4/5 (80%)
[3]; [20]
  Number of patients: skin GL-3 Score 1.5 raised to 2: 1/6 (17%)
  Number of patients: skin GL-3 Score 2 dropped to 1: 1/6 (17%)
  Number of patients: skin GL-3 Score 2 dropped to 1.5: 1/6 (17%)
  Number of patients: skin GL-3 Score 2 unchanged: 3/6 (50%)
